Usually EC50 stands for the concentration at which the effect is half-maximal.

Molecules are shown by their SMILES. *1 amine or outer side, *2 acyl side, *3 side chain or, on linkers, in order; H or OH if unused. Where a SMILES comes first, the peptide text is derived from it. Side-chain parts run from the residue outwards. [ ]: non-standard residue; d: D form. The star is where a group is joined. C18 diacid = O=C(O)CCCCCCCCCCCCCCCCC(=O)*; C16 diacid = O=C(O)CCCCCCCCCCCCCCC(=O)*; γGlu = O=C(O)[C@H](CCC(=O)[*:2])N[*:1]; C14 diacid = O=C(O)CCCCCCCCCCCCC(=O)*; NMeI = CC[C@H](C)[C@H](NC)C(=O)O; Abu = CC[C@H](N)C(=O)O; AEEA = NCCOCCOCC(=O)O; Aib = CC(C)(N)C(=O)O; Butyryl = CCCC(=O)*

The text below walks through data of US20260001928A1 (CORTERIA PHARMACEUTICALS, priority 2022, published 2026).

Experiment [1] deals with T1, CFR1R receptor (Homo sapiens, UniProt P34998).
T1 construct: host or cells: CHO-K1 (clone 2)
T1 sequence (P34998 24-415): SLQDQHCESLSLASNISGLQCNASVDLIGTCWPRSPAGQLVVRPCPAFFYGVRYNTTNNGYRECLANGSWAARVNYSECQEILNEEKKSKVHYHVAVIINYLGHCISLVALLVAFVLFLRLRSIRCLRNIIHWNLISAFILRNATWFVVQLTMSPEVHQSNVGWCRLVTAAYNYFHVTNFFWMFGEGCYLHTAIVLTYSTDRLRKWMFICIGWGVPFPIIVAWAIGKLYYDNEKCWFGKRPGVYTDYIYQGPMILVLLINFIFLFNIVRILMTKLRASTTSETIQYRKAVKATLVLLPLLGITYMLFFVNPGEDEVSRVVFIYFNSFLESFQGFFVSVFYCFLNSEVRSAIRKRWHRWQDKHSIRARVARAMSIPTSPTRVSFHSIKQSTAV
Briefly: Activity at anti-target CFR1R receptor, cAMP assay in CRF1R-overexpression CHO-K1 cells. It is filed as cell-based. The conditions noted are these: 100% = Sauvagine at 100 nM; for EC50: cAMP. The gist of the method:
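Signal is normalised to 100 nM Sauvagine, taken as 100% activation, in clone 2 cells plated at a final 4000 cells/well from frozen stocks.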
(In general: Changes in cAMP serve as a functional read-out for many G protein-coupled receptors.)

Experiment [2] deals with T2, human CRF2a receptor (Homo sapiens, UniProt Q13324).
T2 construct: expressed in transfected cells; host or cells: TeloHEAC cells
T2 sequence (Q13324 1-411): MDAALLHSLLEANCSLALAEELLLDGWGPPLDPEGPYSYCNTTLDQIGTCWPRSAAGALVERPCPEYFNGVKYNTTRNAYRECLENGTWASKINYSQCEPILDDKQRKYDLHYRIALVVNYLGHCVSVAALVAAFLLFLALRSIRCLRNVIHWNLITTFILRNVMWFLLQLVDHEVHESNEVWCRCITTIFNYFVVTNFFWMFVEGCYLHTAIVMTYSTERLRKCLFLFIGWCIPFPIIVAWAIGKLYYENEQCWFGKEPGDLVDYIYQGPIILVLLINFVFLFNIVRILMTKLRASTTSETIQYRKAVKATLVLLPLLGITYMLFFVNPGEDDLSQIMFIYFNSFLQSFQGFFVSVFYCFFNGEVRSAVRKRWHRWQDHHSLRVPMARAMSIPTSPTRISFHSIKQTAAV
Briefly: Activity at human CRF2a receptor, cAMP functional assay in TeloHEAC cells. It is filed as cell-based. As to conditions: TeloHEAC cells stably expressing human CRF2a receptor, relative to urocortin 2 (100 nM = 100%). The gist of the method: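 cAMP accumulation was measured by HTRF 665/620 nm ratio after 30 min at 37° C compound exposure (16 twofold dilutions) of CRF2a-expressing TeloHEAC cells, 10000/well, in HEPES-buffered HBSS plus IBMX. Activity was normalised to urocortin 2 at 100 nM (100%), and EC50 was the concentration giving half-maximal activation.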

As for `CC[C@H](C)[C@H](NC(C)=O)C(=O)N[C@H](C(=O)N[C@@H](CC(C)C)C(=O)N[C@@H](CO)C(=O)N[C@@H](CC(C)C)C(=O)N[C@@H](CC(=O)O)C(=O)N[C@@H](C(=O)N1CCC[C@H]1C(=O)N[C@H](C(=O)N[C@@H](C)C(=O)N[C@@H](CC(C)C)C(=O)N[C@@H](CCCCNC(=O)CC[C@H](NC(=O)CCCCCCCCCCCCCCC(=O)O)C(=O)O)C(=O)N[C@@H](CCCCN)C(=O)N[C@H](C(=O)N[C@@H](CC(C)C)C(=O)N[C@@H](CC(C)C)C(=O)N[C@@H](CCC(=O)O)C(=O)N[C@@H](CCC(N)=O)C(=O)N[C@@H](CCC(=O)O)C(=O)N[C@@H](CCCCN)C(=O)N[C@@H](CCC(N)=O)C(=O)N[C@@H](CCCCN)C(=O)N[C@@H](CCCCN)C(=O)N[C@@H](CCC(N)=O)C(=O)N[C@@H](CCCNC(=N)N)C(=O)N[C@@H](CCC(=O)O)C(=O)N[C@@H](CCC(N)=O)C(=O)N[C@@H](C)C(=O)N[C@@H](CCC(=O)O)C(=O)N[C@H](C(=O)N[C@@H](CC(N)=O)C(=O)NC(C)(C)C(=O)N[C@@H](CCC(N)=O)C(=O)N[C@H](C(=O)N[C@@H](CC(C)C)C(=O)N[C@@H](C)C(=O)N[C@@H](CCC(N)=O)C(=O)N[C@H](C(N)=O)C(C)C)[C@@H](C)CC)[C@@H](C)O)[C@@H](C)CC)[C@@H](C)CC)C(C)C)C(C)C` [compound 163] (Ac-IVLSLD[dV]PIALK([γGlu-C16 diacid])KILLEQEKQKKQREQAETN[Aib]QILAQV-NH2), the “Emax (% I)” value in experiment [1] was determined as 53 % I. For the same compound, the EC50 in experiment [2] is 0.3 nM.
For `CC[C@H](C)[C@H](NC)C(=O)N[C@H](C(=O)N[C@@H](CC(C)C)C(=O)N[C@@H](CO)C(=O)N[C@@H](CC(C)C)C(=O)N[C@@H](CC(=O)O)C(=O)N[C@@H](C(=O)N1CCC[C@H]1C(=O)N[C@H](C(=O)N[C@@H](CCCCN)C(=O)N[C@@H](CC(C)C)C(=O)N[C@@H](CCCCNC(=O)CC[C@H](NC(=O)CCCCCCCCCCCCC(=O)O)C(=O)O)C(=O)N[C@@H](CCCCN)C(=O)N[C@H](C(=O)N[C@@H](CC(C)C)C(=O)N[C@@H](CC(C)C)C(=O)N[C@@H](CCC(=O)O)C(=O)N[C@@H](CCC(N)=O)C(=O)N[C@@H](CCC(=O)O)C(=O)N[C@@H](CCCCN)C(=O)N[C@@H](CCC(N)=O)C(=O)N[C@@H](CCCCN)C(=O)N[C@@H](C)C(=O)N[C@@H](CCC(N)=O)C(=O)N[C@@H](CCCNC(=N)N)C(=O)N[C@@H](CCC(=O)O)C(=O)N[C@@H](CCC(N)=O)C(=O)N[C@@H](C)C(=O)N[C@@H](CCC(=O)O)C(=O)N[C@H](C(=O)N[C@@H](CC(N)=O)C(=O)NC(C)(C)C(=O)N[C@@H](CCC(N)=O)C(=O)N[C@H](C(=O)N[C@@H](CC(C)C)C(=O)N[C@@H](C)C(=O)N[C@@H](CCC(N)=O)C(=O)N[C@H](C(N)=O)C(C)C)[C@@H](C)CC)[C@@H](C)O)[C@@H](C)CC)[C@@H](C)CC)C(C)C)C(C)C` [compound 176] (H-[NMeI]VLSLD[dV]PIKLK([γGlu-C14 diacid])KILLEQEKQKAQREQAETN[Aib]QILAQV-NH2), in experiment [1], the “Emax (% I)” value is reported as 8 % I. In addition, the concentration for a half-maximal effect (EC50) is over 250 nM in experiment [1] and 0.99 nM in experiment [2].
As for `CC[C@H](NC(=O)[C@H](CC(N)=O)NC(=O)[C@@H](NC(=O)[C@H](CCC(=O)O)NC(=O)[C@H](C)NC(=O)[C@H](CCC(N)=O)NC(=O)[C@H](CCC(=O)O)NC(=O)[C@H](CCCNC(=N)N)NC(=O)[C@H](CCC(N)=O)NC(=O)[C@H](CCCCN)NC(=O)[C@H](CCCCN)NC(=O)[C@H](CCC(N)=O)NC(=O)[C@H](CCCCN)NC(=O)[C@H](CCC(=O)O)NC(=O)[C@H](CCC(N)=O)NC(=O)[C@H](CCC(=O)O)NC(=O)[C@H](CC(C)C)NC(=O)[C@H](CC(C)C)NC(=O)[C@@H](NC(=O)[C@H](CCCCN)NC(=O)[C@H](CCCCNC(=O)CC[C@H](NC(=O)CCCCCCCCCCCCCCCCC(=O)O)C(=O)O)NC(=O)[C@H](CC(C)C)NC(=O)[C@H](CCCCN)NC(=O)[C@@H](NC(=O)[C@@H]1CCCN1C(=O)[C@H](NC(=O)[C@H](CC(=O)O)NC(=O)[C@H](CC(C)C)NC(=O)[C@H](CO)NC(=O)[C@H](CC(C)C)NC(=O)[C@@H](NC(=O)[C@@H](NC(C)=O)[C@@H](C)CC)C(C)C)C(C)C)[C@@H](C)CC)[C@@H](C)CC)[C@@H](C)O)C(=O)N[C@@H](CCC(N)=O)C(=O)N[C@H](C(=O)N[C@@H](CC(C)C)C(=O)N[C@@H](C)C(=O)N[C@@H](CCC(N)=O)C(=O)N[C@H](C(N)=O)C(C)C)[C@@H](C)CC` [compound 127] (Ac-IVLSLD[dV]PIKLK([γGlu-C18 diacid])KILLEQEKQKKQREQAETN[Abu]QILAQV-NH2), in experiment [1], the “Emax (% I)” value came out at 11 % I and the EC50 is over 250 nM. The compound also returned a concentration giving a half-maximal response (EC50) in experiment [2] of 0.08 nM.
In the case of `CCCC(=O)N[C@H](C(=O)N[C@@H](CC(C)C)C(=O)N[C@@H](CO)C(=O)N[C@@H](CC(C)C)C(=O)N[C@@H](CC(=O)O)C(=O)N[C@@H](C(=O)N1CCC[C@H]1C(=O)N[C@H](C(=O)N[C@@H](CCCCN)C(=O)N[C@@H](CC(C)C)C(=O)N[C@@H](CCCCNC(=O)CC[C@H](NC(=O)CCCCCCCCCCCCCCC(=O)O)C(=O)O)C(=O)N[C@@H](CCCCN)C(=O)N[C@H](C(=O)N[C@@H](CC(C)C)C(=O)N[C@@H](CC(C)C)C(=O)N[C@@H](CCC(=O)O)C(=O)N[C@@H](CCC(N)=O)C(=O)N[C@@H](CCC(=O)O)C(=O)N[C@@H](CCCCN)C(=O)N[C@@H](CCC(N)=O)C(=O)N[C@@H](CCCCN)C(=O)N[C@@H](CCCCN)C(=O)N[C@@H](CCC(N)=O)C(=O)N[C@@H](CCCNC(=N)N)C(=O)N[C@@H](CCC(=O)O)C(=O)N[C@@H](CCC(N)=O)C(=O)N[C@@H](C)C(=O)N[C@@H](CCC(=O)O)C(=O)N[C@H](C(=O)N[C@@H](CC(N)=O)C(=O)N[C@@H](CCCCN)C(=O)N[C@@H](CCC(N)=O)C(=O)N[C@H](C(=O)N[C@@H](CC(C)C)C(=O)N[C@@H](C)C(=O)N[C@@H](CCC(N)=O)C(=O)N[C@H](C(N)=O)C(C)C)[C@@H](C)CC)[C@@H](C)O)[C@@H](C)CC)[C@@H](C)CC)C(C)C)C(C)C` [compound 36] (Butyryl-VLSLD[dV]PIKLK([γGlu-C16 diacid])KILLEQEKQKKQREQAETNKQILAQV-NH2), in experiment [1], the “Emax (% I)” value is 22 % I and the half-maximal effective concentration (EC50) is over 250 nM. In experiment [2], this compound came in with an EC50 of 0.14 nM.
As to `CC[C@H](C)[C@H](NC(=O)[C@H](CCC(N)=O)NC(=O)C(C)(C)NC(=O)[C@H](CC(N)=O)NC(=O)[C@@H](NC(=O)[C@H](CCC(=O)O)NC(=O)[C@H](C)NC(=O)[C@H](CCC(N)=O)NC(=O)[C@H](CCC(=O)O)NC(=O)[C@H](CCCNC(=N)N)NC(=O)[C@H](CCC(N)=O)NC(=O)[C@H](CCCCN)NC(=O)[C@H](CCCCN)NC(=O)[C@H](CCC(N)=O)NC(=O)[C@H](CCCCN)NC(=O)[C@H](CCC(=O)O)NC(=O)[C@H](CCC(N)=O)NC(=O)[C@H](CCC(=O)O)NC(=O)[C@H](CC(C)C)NC(=O)[C@H](CC(C)C)NC(=O)[C@@H](NC(=O)[C@H](CCCCN)NC(=O)[C@H](CCCCNC(=O)COCCOCCNC(=O)COCCOCCNC(=O)CC[C@H](NC(=O)CCCCCCCCCCCCCCCCC(=O)O)C(=O)O)NC(=O)[C@H](CC(C)C)NC(=O)[C@H](CCCCN)NC(=O)[C@@H](NC(=O)[C@@H]1CCCN1C(=O)[C@H](NC(=O)[C@H](CC(=O)O)NC(=O)[C@H](CC(C)C)NC(=O)[C@H](CO)NC(=O)[C@H](CC(C)C)NC(=O)[C@@H](NC(C)=O)C(C)C)C(C)C)[C@@H](C)CC)[C@@H](C)CC)[C@@H](C)O)C(=O)N[C@@H](CC(C)C)C(=O)N[C@@H](C)C(=O)N[C@@H](CCC(N)=O)C(=O)N[C@H](C(N)=O)C(C)C` [compound 99] (Ac-VLSLD[dV]PIKLK([AEEA-AEEA-γGlu-C18 diacid])KILLEQEKQKKQREQAETN[Aib]QILAQV-NH2), in experiment [1], the “Emax (% I)” value is reported as 0 % I and the half-maximal effective concentration (EC50) was over 250 nM. In experiment [2], this compound came in with an EC50 of 6.07 nM.
